In PubChem BioAssay (NCI):
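In this assay, cells in 96-well plates receive the compound at five concentrations for 48 hours. Endpoints are linearly interpolated between the surrounding concentrations. TGI: total growth inhibition.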

Experiments:
Experiment in all cases: NCI anticancer screen, dose series, 48 h
SK-MEL-2 melanoma = test system: SK-MEL-2 melanoma
HOP-62 NSCLC = test system: HOP-62 NSCLC
A549 NSCLC = test system: A549 NSCLC
SK-MEL-28 melanoma = test system: SK-MEL-28 melanoma
COLO 205 colon = test system: COLO 205 colon
KM12 colon = test system: KM12 colon
OVCAR-8 ovarian = test system: OVCAR-8 ovarian
DU-145 prostate = test system: DU-145 prostate
M14 melanoma = test system: M14 melanoma
UACC-62 melanoma = test system: UACC-62 melanoma
SF-539 CNS = test system: SF-539 CNS
UO-31 renal = test system: UO-31 renal
SNB-75 CNS = test system: SNB-75 CNS
ACHN renal = test system: ACHN renal
UACC-257 melanoma = test system: UACC-257 melanoma
PC-3 prostate = test system: PC-3 prostate
HCT-116 colon = test system: HCT-116 colon
TK-10 renal = test system: TK-10 renal
OVCAR-3 ovarian = test system: OVCAR-3 ovarian
BT-549 breast = test system: BT-549 breast
SK-MEL-5 melanoma = test system: SK-MEL-5 melanoma
SF-295 CNS = test system: SF-295 CNS
SK-OV-3 ovarian = test system: SK-OV-3 ovarian
HS 578T breast = test system: HS 578T breast
MALME-3M melanoma = test system: MALME-3M melanoma
SN12C renal = test system: SN12C renal
HCC-2998 colon = test system: HCC-2998 colon
SW-620 colon = test system: SW-620 colon
HCT-15 colon = test system: HCT-15 colon
MDA-N = test system: MDA-N
MDA-MB-435 = test system: MDA-MB-435
OVCAR-4 ovarian = test system: OVCAR-4 ovarian
MOLT-4 leukemia = test system: MOLT-4 leukemia
NCI-H23 lung = test system: NCI-H23 lung
T-47D breast = test system: T-47D breast
OVCAR-5 ovarian = test system: OVCAR-5 ovarian
CAKI-1 renal = test system: CAKI-1 renal
NCI/ADR-RES ovarian = test system: NCI/ADR-RES ovarian
SNB-19 CNS = test system: SNB-19 CNS
SR leukemia = test system: SR leukemia
EKVX NSCLC = test system: EKVX NSCLC
HOP-92 NSCLC = test system: HOP-92 NSCLC
MCF7 breast = test system: MCF7 breast
786-0 renal = test system: 786-0 renal
MDA-MB-231 breast = test system: MDA-MB-231 breast
NCI-H226 lung = test system: NCI-H226 lung
K-562 leukemia = test system: K-562 leukemia
HT29 colon = test system: HT29 colon
LOX IMVI melanoma = test system: LOX IMVI melanoma
NCI-H460 lung = test system: NCI-H460 lung
IGROV1 ovarian = test system: IGROV1 ovarian
U251 CNS = test system: U251 CNS
CCRF-CEM leukemia = test system: CCRF-CEM leukemia
A498 renal = test system: A498 renal
SF-268 CNS = test system: SF-268 CNS
NCI-H522 lung = test system: NCI-H522 lung
HL-60(TB) leukemia = test system: HL-60(TB) leukemia
RXF 393 renal = test system: RXF 393 renal

## CCO/C(Cc1ccc(Cl)cc1)=N/NC(N)=S
SK-MEL-2 melanoma
  TGI: > 100 µM
HOP-62 NSCLC
  TGI: > 100 µM
A549 NSCLC
  TGI: > 100 µM
SK-MEL-28 melanoma
  TGI: > 100 µM
COLO 205 colon
  TGI: > 100 µM
KM12 colon
  TGI: > 100 µM
OVCAR-8 ovarian
  TGI: > 100 µM
DU-145 prostate
  TGI: > 100 µM
M14 melanoma
  TGI: > 100 µM
UACC-62 melanoma
  TGI: > 100 µM
SF-539 CNS
  TGI: > 100 µM
UO-31 renal
  TGI: > 100 µM
SNB-75 CNS
  TGI: > 100 µM
ACHN renal
  TGI: > 100 µM
UACC-257 melanoma
  TGI: > 100 µM
PC-3 prostate
  TGI: > 100 µM
HCT-116 colon
  TGI: > 100 µM
TK-10 renal
  TGI: > 100 µM
OVCAR-3 ovarian
  TGI: > 100 µM
BT-549 breast
  TGI: > 100 µM
SK-MEL-5 melanoma
  TGI: > 100 µM
SF-295 CNS
  TGI: > 100 µM
SK-OV-3 ovarian
  TGI: > 100 µM
HS 578T breast
  TGI: > 100 µM
MALME-3M melanoma
  TGI: > 100 µM
SN12C renal
  TGI: > 100 µM
HCC-2998 colon
  TGI: > 100 µM
SW-620 colon
  TGI: > 100 µM
HCT-15 colon
  TGI: > 100 µM
MDA-N
  TGI: > 100 µM
MDA-MB-435
  TGI: > 100 µM
OVCAR-4 ovarian
  TGI: > 100 µM
MOLT-4 leukemia
  TGI: > 100 µM
NCI-H23 lung
  TGI: > 100 µM
T-47D breast
  TGI: > 100 µM
OVCAR-5 ovarian
  TGI: > 100 µM
CAKI-1 renal
  TGI: > 100 µM
NCI/ADR-RES ovarian
  TGI: > 100 µM
SNB-19 CNS
  TGI: > 100 µM
SR leukemia
  TGI: > 100 µM
EKVX NSCLC
  TGI: > 100 µM
HOP-92 NSCLC
  TGI: > 100 µM
MCF7 breast
  TGI: > 100 µM
786-0 renal
  TGI: > 100 µM
MDA-MB-231 breast
  TGI: > 100 µM
NCI-H226 lung
  TGI: > 100 µM
K-562 leukemia
  TGI: > 100 µM
HT29 colon
  TGI: > 100 µM
LOX IMVI melanoma
  TGI: > 100 µM
NCI-H460 lung
  TGI: > 100 µM
IGROV1 ovarian
  TGI: > 100 µM
U251 CNS
  TGI: > 100 µM
CCRF-CEM leukemia
  TGI: > 100 µM
A498 renal
  TGI: > 100 µM

## N/C(=N\S(=O)(=O)c1cc(Cl)c(Oc2ccc([N+](=O)[O-])cc2Cl)c(Cl)c1)Nc1ccc(Cl)cc1
SK-MEL-2 melanoma
  TGI: 36.2 µM
A549 NSCLC
  TGI: 35.9 µM
SK-MEL-28 melanoma
  TGI: 33 µM
COLO 205 colon
  TGI: 30.5 µM
KM12 colon
  TGI: 36.6 µM
OVCAR-8 ovarian
  TGI: 31.9 µM
DU-145 prostate
  TGI: 35.8 µM
M14 melanoma
  TGI: 36.4 µM
UACC-62 melanoma
  TGI: 25.6 µM
SF-539 CNS
  TGI: 34.4 µM
UO-31 renal
  TGI: 34.1 µM
SNB-75 CNS
  TGI: 35.2 µM
ACHN renal
  TGI: 30.5 µM
UACC-257 melanoma
  TGI: 32.8 µM
PC-3 prostate
  TGI: 30.5 µM
HCT-116 colon
  TGI: 34.3 µM
TK-10 renal
  TGI: 35.4 µM
OVCAR-3 ovarian
  TGI: 37.6 µM
BT-549 breast
  TGI: 32.3 µM
SK-MEL-5 melanoma
  TGI: 31.3 µM
SF-268 CNS
  TGI: > 100 µM
SF-295 CNS
  TGI: 39.5 µM
SK-OV-3 ovarian
  TGI: 39.8 µM
HS 578T breast
  TGI: > 100 µM
MALME-3M melanoma
  TGI: > 100 µM
SN12C renal
  TGI: 33.3 µM
SW-620 colon
  TGI: 45.9 µM
NCI-H522 lung
  TGI: > 100 µM
HCT-15 colon
  TGI: 33.3 µM
MDA-N
  TGI: 34.8 µM
MDA-MB-435
  TGI: 33.6 µM
OVCAR-4 ovarian
  TGI: 30.4 µM
MOLT-4 leukemia
  TGI: 34.2 µM
NCI-H23 lung
  TGI: 32.1 µM
T-47D breast
  TGI: 34.2 µM
OVCAR-5 ovarian
  TGI: 53.6 µM
CAKI-1 renal
  TGI: 33.1 µM
NCI/ADR-RES ovarian
  TGI: 35.3 µM
SNB-19 CNS
  TGI: 33.6 µM
SR leukemia
  TGI: 43.3 µM
EKVX NSCLC
  TGI: 36.6 µM
HOP-92 NSCLC
  TGI: 32.3 µM
HL-60(TB) leukemia
  TGI: 39.6 µM
RXF 393 renal
  TGI: 31.8 µM
786-0 renal
  TGI: 35.1 µM
MDA-MB-231 breast
  TGI: 32.9 µM
NCI-H226 lung
  TGI: 33.2 µM
K-562 leukemia
  TGI: 43.1 µM
HT29 colon
  TGI: 54.4 µM
LOX IMVI melanoma
  TGI: 31.6 µM
NCI-H460 lung
  TGI: 40.1 µM
IGROV1 ovarian
  TGI: 31.4 µM
U251 CNS
  TGI: 29.6 µM
CCRF-CEM leukemia
  TGI: 52.1 µM
A498 renal
  TGI: 29.4 µM
